These results are taken from patent US11420973B2, “Amide substituted indole compounds useful as TLR inhibitors” (BRISTOL-MYERS SQUIBB COMPANY, priority 2017, dated 2022).

Molecules are shown by their SMILES. Bounds are passed on as bounds.

The target of one assay is human TLR7 (Homo sapiens (Human), UniProt Q9NYK1). Kind of assay: TLR7 inhibition reporter assay (HEK-Blue SEAP reporter, gardiquimod stimulation). Type of assay: cell-based. The conditions noted are these: HEK-Blue cells overexpressing human TLR7, gardiquimod 7.5 μM. Background: Reporter assays use an easily measured gene product as a stand-in for the process of interest.

Another assay deals with human TLR8 (Homo sapiens (Human), UniProt Q9NR97). Kind of assay: TLR8 inhibition reporter assay (HEK-Blue SEAP reporter, R848 stimulation).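 Further: SEAP driven by IFN-β minimal promoter with NF-κB and AP-1 sites, 22 h incubation, compounds 0.05 nM–50 µM, inhibition scaled between agonist plus DMSO and reference inhibitor wells.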 The conditions noted are these: read-out: TLR8 IC50; HEK-Blue cells overexpressing human TLR8, R848 15.9 μM, SEAP reporter.
Another assay deals with human TLR9 (Homo sapiens (Human), UniProt Q9NR96). Kind of assay: TLR9 inhibition reporter assay (HEK-Blue SEAP reporter, ODN2006 stimulation).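 Further: SEAP reporter under IFN-β minimal promoter with five NF-κB and AP-1 sites, 22 h incubation, compounds 0.05 nM–50 µM, inhibition relative to agonist plus DMSO versus known inhibitor.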 The following applies: read-out: TLR9 IC50; HEK-Blue cells overexpressing human TLR9, ODN2006 5 nM, SEAP reporter.
human TLR9, sequence (Q9NR96 26-1032): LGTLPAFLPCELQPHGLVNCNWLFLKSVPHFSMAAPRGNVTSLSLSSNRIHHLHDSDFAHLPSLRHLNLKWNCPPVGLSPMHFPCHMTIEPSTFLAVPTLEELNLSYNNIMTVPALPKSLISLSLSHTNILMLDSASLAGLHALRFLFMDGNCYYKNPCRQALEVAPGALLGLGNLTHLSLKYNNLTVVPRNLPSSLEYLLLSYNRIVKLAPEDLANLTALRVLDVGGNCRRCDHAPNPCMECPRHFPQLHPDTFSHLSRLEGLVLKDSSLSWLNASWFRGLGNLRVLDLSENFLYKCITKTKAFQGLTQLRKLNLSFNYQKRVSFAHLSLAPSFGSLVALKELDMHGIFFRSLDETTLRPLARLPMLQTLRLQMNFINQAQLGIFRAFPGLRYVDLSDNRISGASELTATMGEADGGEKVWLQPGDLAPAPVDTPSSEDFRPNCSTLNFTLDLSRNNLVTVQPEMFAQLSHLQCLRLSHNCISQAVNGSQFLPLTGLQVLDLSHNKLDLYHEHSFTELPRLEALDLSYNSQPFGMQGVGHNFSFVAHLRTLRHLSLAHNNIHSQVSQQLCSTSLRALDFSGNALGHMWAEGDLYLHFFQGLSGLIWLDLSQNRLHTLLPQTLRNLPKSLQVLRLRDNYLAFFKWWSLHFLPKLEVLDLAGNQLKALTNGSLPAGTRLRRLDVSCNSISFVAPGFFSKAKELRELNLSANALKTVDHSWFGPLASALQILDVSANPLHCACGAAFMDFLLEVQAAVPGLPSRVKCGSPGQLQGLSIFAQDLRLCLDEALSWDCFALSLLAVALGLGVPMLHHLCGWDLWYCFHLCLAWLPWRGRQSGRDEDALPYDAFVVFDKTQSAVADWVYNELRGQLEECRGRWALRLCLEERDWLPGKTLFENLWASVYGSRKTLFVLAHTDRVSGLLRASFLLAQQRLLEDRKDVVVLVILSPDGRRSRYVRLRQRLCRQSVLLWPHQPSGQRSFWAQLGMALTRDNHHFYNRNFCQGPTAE

human TLR8, sequence (Q9NR97 27-1041): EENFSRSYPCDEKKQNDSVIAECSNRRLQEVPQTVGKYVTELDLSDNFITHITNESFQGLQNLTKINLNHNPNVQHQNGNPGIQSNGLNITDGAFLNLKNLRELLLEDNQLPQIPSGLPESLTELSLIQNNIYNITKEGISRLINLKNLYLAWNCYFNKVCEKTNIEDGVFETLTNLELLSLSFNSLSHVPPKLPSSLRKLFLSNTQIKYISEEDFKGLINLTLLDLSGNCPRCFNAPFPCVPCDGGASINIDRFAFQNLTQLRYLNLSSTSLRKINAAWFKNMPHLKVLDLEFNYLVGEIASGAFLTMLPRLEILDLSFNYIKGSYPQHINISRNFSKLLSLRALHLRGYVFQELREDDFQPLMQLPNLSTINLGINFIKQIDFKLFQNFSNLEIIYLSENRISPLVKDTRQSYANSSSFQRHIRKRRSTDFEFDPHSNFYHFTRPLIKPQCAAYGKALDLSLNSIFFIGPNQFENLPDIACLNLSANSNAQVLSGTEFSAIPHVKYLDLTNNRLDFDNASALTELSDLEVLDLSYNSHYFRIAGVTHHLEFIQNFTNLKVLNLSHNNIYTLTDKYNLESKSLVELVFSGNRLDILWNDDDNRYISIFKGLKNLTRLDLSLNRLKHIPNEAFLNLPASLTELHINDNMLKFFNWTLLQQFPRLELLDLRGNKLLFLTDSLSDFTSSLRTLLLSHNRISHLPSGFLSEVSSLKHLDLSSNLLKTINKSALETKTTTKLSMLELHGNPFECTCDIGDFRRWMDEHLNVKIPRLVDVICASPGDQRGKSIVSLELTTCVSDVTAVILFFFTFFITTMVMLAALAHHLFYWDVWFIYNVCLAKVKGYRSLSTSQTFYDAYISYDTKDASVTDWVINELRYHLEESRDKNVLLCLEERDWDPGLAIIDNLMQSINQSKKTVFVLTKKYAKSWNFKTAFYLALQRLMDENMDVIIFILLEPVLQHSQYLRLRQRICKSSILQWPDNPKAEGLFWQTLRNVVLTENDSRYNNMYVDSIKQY
human TLR7, sequence (Q9NYK1 27-1049): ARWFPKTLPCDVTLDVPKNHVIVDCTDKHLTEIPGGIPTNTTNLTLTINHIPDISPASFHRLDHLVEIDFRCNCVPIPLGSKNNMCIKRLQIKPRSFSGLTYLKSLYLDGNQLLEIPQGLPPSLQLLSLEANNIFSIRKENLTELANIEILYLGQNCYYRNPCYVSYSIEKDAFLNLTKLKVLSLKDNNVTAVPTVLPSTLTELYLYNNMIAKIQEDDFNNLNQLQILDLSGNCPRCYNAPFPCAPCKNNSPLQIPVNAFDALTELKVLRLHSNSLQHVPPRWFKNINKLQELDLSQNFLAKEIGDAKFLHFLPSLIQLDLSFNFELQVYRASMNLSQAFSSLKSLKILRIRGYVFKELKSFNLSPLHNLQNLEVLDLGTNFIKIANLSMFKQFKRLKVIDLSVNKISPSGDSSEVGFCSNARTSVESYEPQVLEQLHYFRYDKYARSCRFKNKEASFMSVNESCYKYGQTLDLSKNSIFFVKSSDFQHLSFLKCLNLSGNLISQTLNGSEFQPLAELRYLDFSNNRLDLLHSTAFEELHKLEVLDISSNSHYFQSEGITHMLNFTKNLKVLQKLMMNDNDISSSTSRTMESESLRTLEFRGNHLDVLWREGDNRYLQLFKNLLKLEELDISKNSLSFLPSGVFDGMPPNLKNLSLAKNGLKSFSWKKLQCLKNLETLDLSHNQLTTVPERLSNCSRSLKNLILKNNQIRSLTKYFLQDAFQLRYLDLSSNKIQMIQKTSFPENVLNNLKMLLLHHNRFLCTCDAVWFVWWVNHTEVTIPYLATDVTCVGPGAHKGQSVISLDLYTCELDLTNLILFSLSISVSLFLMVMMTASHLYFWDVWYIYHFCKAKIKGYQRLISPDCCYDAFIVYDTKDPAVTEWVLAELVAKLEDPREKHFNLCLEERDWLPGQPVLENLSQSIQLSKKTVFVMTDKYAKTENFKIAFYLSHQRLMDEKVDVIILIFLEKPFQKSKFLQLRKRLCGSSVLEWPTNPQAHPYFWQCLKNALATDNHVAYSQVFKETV

Usually IC50 stands for the concentration at which inhibition is half-maximal. Consider `COc1ccc(-c2[nH]c3ccc(C(=O)N4C[C@@H]5C[C@H]4CN5)cc3c2C(C)C)cc1OC` [Example 5, ((1S,4S)-2,5-diazabicyclo[2.2.1]heptan-2-yl)(2-(3,4-dimethoxyphenyl)-3-isopropyl-1H-indol-5-yl)methanone], for which the 50% inhibitory concentration (IC50) against human TLR7 is 43 nM; on human TLR8, 43 nM; at human TLR9, 1380 nM.
With `COc1ccc(-c2[nH]c3ccc(C(=O)N4CC5CN(CC(=O)N(C)C)CC5C4)cc3c2C(C)C)cc1OC` (stereo not drawn) [Example 6, 2-{5-[2-(3,4-dimethoxyphenyl)-3-(propan-2-yl)-1H-indole-5-carbonyl]-octahydropyrrolo [3,4-c]pyrrol-2-yl}-N,N-dimethylacetamide], the IC50 is 180 nM against human TLR7, 180 nM at human TLR8 and 5230 nM on human TLR9.
For the compound `CNC(=O)CN1CC2CN(C(=O)c3ccc4[nH]c(-c5ccc(OC)c(OC)c5)c(C(C)C)c4c3)CC2C1` (stereo not drawn) [Example 7, 2-(5-(2-(3,4-dimethoxyphenyl)-3-isopropyl-1H-indole-5-carbonyl)hexahydropyrrolo[3,4-c]pyrrol-2(1H)-yl)-N-methylacetamide], the IC50 on human TLR7 is 343 nM; on human TLR8, 267 nM; at human TLR9 it was 4020 nM.
Taken in the same sequence, the figures for `COc1ccc(-c2[nH]c3ccc(C(=O)N4CC5CN(C(=O)CN(C)C)CC5C4)cc3c2C(C)C)cc1OC` (stereo not drawn) [Example 9, 1-(5-(2-(3,4-dimethoxyphenyl)-3-isopropyl-1H-indole-5-carbonyl)hexahydropyrrolo[3,4-c]pyrrol-2(1H)-yl)-2-(dimethylamino)ethan-1-one] were 76 nM, 54 nM and 5350 nM.
Consider `CNCCN1CC2CN(C(=O)c3ccc4[nH]c(-c5ccc(OC)c(OC)c5)c(C(C)C)c4c3)CC2C1` (stereo not drawn) [Example 12, (2-(3,4-dimethoxyphenyl)-3-isopropyl-1H-indol-5-yl)(5-(2-(methylamino)ethyl)hexahydropyrrolo[3,4-c]pyrrol-2(1H)-yl)methanone], for which the figures for the 50% inhibitory concentration (IC50) against human TLR7, at human TLR8 and at human TLR9 were 274 nM, 175 nM and 1220 nM, respectively.
The corresponding values for `COc1ccc(-c2[nH]c3ccc(C(=O)N4CC5CN(C)CC5C4)cc3c2C(C)C)cc1OC` (stereo not drawn) [Example 13, (2-(3,4-dimethoxyphenyl)-3-isopropyl-1H-indol-5-yl)(5-methylhexahydropyrrolo[3,4-c]pyrrol-2(1H)-yl)methanone] are 61 nM, 61 nM and 2160 nM.
Taken in the same sequence, the figures for `COc1ccc(-c2[nH]c3ccc(C(=O)N4CC5CN(C(C)C)CC5C4)cc3c2C(C)C)cc1OC` (stereo not drawn) [Example 14, (2-(3,4-dimethoxyphenyl)-3-isopropyl-1H-indol-5-yl)(5-isopropylhexahydropyrrolo[3,4-c]pyrrol-2(1H)-yl)methanone] were 40 nM, 26 nM and 1190 nM.
The corresponding values for `COc1ccc(-c2[nH]c3ccc(C(=O)N4CC5CN(C6CCN(C)CC6)CC5C4)cc3c2C(C)C)cc1OC` (stereo not drawn) [Example 15, (2-(3,4-dimethoxyphenyl)-3-isopropyl-1H-indol-5-yl)(5-(1-methylpiperidin-4-yl)hexahydropyrrolo[3,4-c]pyrrol-2(1H)-yl)methanone] are 99 nM, 54 nM and 429 nM.
With `CNCC(=O)N1CC2CN(C(=O)c3ccc4[nH]c(-c5ccc(OC)c(OC)c5)c(C(C)C)c4c3)CC2C1` (stereo not drawn) [Example 16, 1-(5-(2-(3,4-dimethoxyphenyl)-3-isopropyl-1H-indole-5-carbonyl)hexahydropyrrolo[3,4-c]pyrrol-2(1H)-yl)-2-(methylamino)ethanone], the IC50 worked out at 280 nM on human TLR7, 194 nM at human TLR8 and 3940 nM on human TLR9.
The corresponding values for `CCc1c(-c2ccc(OC)c(OC)c2)[nH]c2ccc(C(=O)NCCN(C)C)cc12` [Example 17, 2-(3,4-dimethoxyphenyl)-N-[2-(dimethylamino)ethyl]-3-ethyl-1H-indole-5-carboxamide] are 115 nM, 7.9 nM and 2510 nM.
Turning to `CCc1c(-c2ccc(OC)c(OC)c2)[nH]c2ccc(C(=O)NC[C@@H](F)C(C)(C)O)cc12` [Example 18, (R)-2-(3,4-dimethoxyphenyl)-3-ethyl-N-(2-fluoro-3-hydroxy-3-methylbutyl)-1H-indole-5-carboxamide], the results for the IC50 against human TLR7, at human TLR8 and at human TLR9 were 1660 nM, 260 nM and 13800 nM, respectively.
Taken in the same sequence, the figures for `CCc1c(-c2ccc(OC)c(OC)c2)[nH]c2ccc(C(=O)NC3CCCCCC3)cc12` [Example 20, N-cycloheptyl-2-(3,4-dimethoxyphenyl)-3-ethyl-1H-indole-5-carboxamide] were 2310 nM, 858 nM and greater than 50000 nM.
Consider `CCc1c(-c2ccc(OC)c(OC)c2)[nH]c2ccc(C(=O)Nc3cnn(C4COC4)c3)cc12` [Example 21, 2-(3,4-dimethoxyphenyl)-3-ethyl-N-(1-(oxetan-3-yl)-1H-pyrazol-4-yl)-1H-indole-5-carboxamide], for which the figures for the IC50 on human TLR7, at human TLR8 and at human TLR9 were 764 nM, 132 nM and 37400 nM, respectively.
The corresponding values for `CCc1c(-c2ccc(OC)c(OC)c2)[nH]c2ccc(C(=O)N(C)Cc3cccnc3)cc12` [Example 22, 2-(3,4-dimethoxyphenyl)-3-ethyl-N-methyl-N-(pyridin-3-ylmethyl)-1H-indole-5-carboxamide] are 356 nM, 264 nM and 37600 nM.
The corresponding values for `CCc1c(-c2ccc(OC)c(OC)c2)[nH]c2ccc(C(=O)N(C)Cc3csc(C4CCNCC4)n3)cc12` [Example 23, 2-(3,4-dimethoxyphenyl)-3-ethyl-N-methyl-N-((2-(piperidin-4-yl)thiazol-4-yl)methyl)-1H-indole-5-carboxamide] are 362 nM, 43 nM and 885 nM.
As to `CCc1c(-c2ccc(OC)c(OC)c2)[nH]c2ccc(C(=O)N(C)CCc3ccccn3)cc12` [Example 24, 2-(3,4-dimethoxyphenyl)-3-ethyl-N-methyl-N-(2-(pyridin-2-yl)ethyl)-1H-indole-5-carboxamide], the 50% inhibitory concentration (IC50) at human TLR7 is 1790 nM; at human TLR8 it was 581 nM; on human TLR9 it was 31400 nM.
As for `CCc1c(-c2ccc(OC)c(OC)c2)[nH]c2ccc(C(=O)N3CCC(N4CCN(C)CC4)CC3)cc12` [Example 25, (2-(3,4-dimethoxyphenyl)-3-ethyl-1H-indol-5-yl)(4-(4-methylpiperazin-1-yl)piperidin-1-yl)methanone], the IC50 was 186 nM against human TLR7, 14 nM at human TLR8 and 3710 nM on human TLR9.
`CCc1c(-c2ccc(OC)c(OC)c2)[nH]c2ccc(C(=O)N3CCC[C@H]3COC)cc12` [Example 27, (S)-(2-(3,4-dimethoxyphenyl)-3-ethyl-1H-indol-5-yl)(2-(methoxymethyl)pyrrolidin-1-yl)methanone]: the IC50 is 1740 nM at human TLR7, 782 nM at human TLR8 and greater than 50000 nM at human TLR9.
Taken in the same sequence, the figures for `CCc1c(-c2ccc(OC)c(OC)c2)[nH]c2ccc(C(=O)N3CCC[C@H]3CO)cc12` [Example 28, (S)-(2-(3,4-dimethoxyphenyl)-3-ethyl-1H-indol-5-yl)(2-(hydroxymethyl)pyrrolidin-1-yl)methanone] were 1350 nM, 220 nM and greater than 50000 nM.
The corresponding values for `CCc1c(-c2ccc(OC)c(OC)c2)[nH]c2ccc(C(=O)N3CC[C@@H](N(C)C)C3)cc12` [Example 29, (R)-(2-(3,4-dimethoxyphenyl)-3-ethyl-1H-indol-5-yl)(3-(dimethylamino)pyrrolidin-1-yl)methanone] are 188 nM, 34 nM and 6180 nM.
Consider `CCc1c(-c2ccc(OC)c(OC)c2)[nH]c2ccc(C(=O)N3CC[C@H](N(C)C)C3)cc12` [Example 30, (S)-(2-(3,4-dimethoxyphenyl)-3-ethyl-1H-indol-5-yl)(3-(dimethylamino)pyrrolidin-1-yl)methanone], for which the results for the IC50 at human TLR7, on human TLR8 and at human TLR9 were 632 nM, 191 nM and 4160 nM, respectively.
On to `CCc1c(-c2ccc(OC)c(OC)c2)[nH]c2ccc(C(=O)N3CCCC(C)(C)C3)cc12` [Example 32, (2-(3,4-dimethoxyphenyl)-3-ethyl-1H-indol-5-yl)(3,3-dimethylpiperidin-1-yl)methanone], for which the IC50 on human TLR7 came to 1980 nM; on human TLR8 it was 545 nM; on human TLR9 it was 5100 nM.
The corresponding values for `CCc1c(-c2ccc(OC)c(OC)c2)[nH]c2ccc(C(=O)N3CCCC(C(=O)N(CC)CC)C3)cc12` (stereo not drawn) [Example 33, 1-(2-(3,4-dimethoxyphenyl)-3-ethyl-1H-indole-5-carbonyl)-N,N-diethylpiperidine-3-carboxamide] are 1120 nM, 897 nM and 16800 nM.
Taken in the same sequence, the figures for `CCc1c(-c2ccc(OC)c(OC)c2)[nH]c2ccc(C(=O)N3CCC(C(N)=O)CC3)cc12` [Example 34, 1-(2-(3,4-dimethoxyphenyl)-3-ethyl-1H-indole-5-carbonyl)piperidine-4-carboxamide] were 1180 nM, 218 nM and greater than 50000 nM.
`CCc1c(-c2ccc(OC)c(OC)c2)[nH]c2ccc(C(=O)N3CCCN(C(C)=O)CC3)cc12` [Example 35, 1-(4-(2-(3,4-dimethoxyphenyl)-3-ethyl-1H-indole-5-carbonyl)-1,4-diazepan-1-yl)ethan-1-one]: the half-inhibitory concentration (IC50) on human TLR7 was 595 nM; at human TLR8, 190 nM; on human TLR9, greater than 50000 nM.
